According to patent US20130090280A1, “CLEANING COMPOSITIONS AND METHODS” (HONEYWELL INTERNATIONAL INC., priority 2011, published 2013):
Like-named read-outs stand apart in the source and are kept apart here. One block for each molecule: values may come before it.

Experiments:
[1] = selected physical properties of solvents
Source text: In the table Perc, is used as an abbreviation for perchloroethylene.

[2] = miscibility test, equal parts by weight of solvent and oils, visual observation; assay type: physicochemical
Source text: Applicants compared the solubility of various materials which may be considered as soils to be cleaned in 1233zd(E) in Table 3. […] In all cases, the solvent looked clear and the mixtures are reported as miscible below. This is an initial mode of testing to check how well the solvent performs in dissolving the soils.

[3] = chemical stability, reflux with metals and moisture, ion chromatography of aqueous wash; assay type: physicochemical
Source text: The chemical stability of the compound 1233zd(E) by itself and also in the presence of water, metals, flux is another important factor to be considered in the identification of a successful solvent. […] This test continued for 2 weeks.
Solvent was boiled with water alone or in presence of various metal coupons such as stainless steel 304, cold-rolled steel, galvanized steel, copper, and aluminum. The coupons were partially immersed in the solvent which allowed the state of the coupons at the interface of liquid and vapor to be viewed. […] After the test, coupons were observed visually for rusting or pitting and the remaining solvent in the flask was examined for breakdown products including chlorides and fluorides which are good indicators of breakdown of solvents.

[4] = 0.2% moisture added, reflux 100 hours, AL
[5] = 0.2% moisture added, reflux 100 hours, CRS
[6] = 0.2% moisture added, reflux 100 hours, CU
[7] = 0.2% moisture added, reflux 100 hours, GAL
[8] = 0.2% moisture added, reflux 100 hours, S.S 304
[9] = 0.2% moisture added, reflux 100 hours, no metal
[10] = no additional moisture, reflux, AL
[11] = no additional moisture, reflux, CRS
[12] = no additional moisture, reflux, CU
[13] = no additional moisture, reflux, GAL
[14] = no additional moisture, reflux, S.S 304
[15] = no additional moisture, reflux, no metal
[16] = no additional moisture, virgin/no reflux

Molecule: dichloropentafluoropropane [HCFC-225]
Boiling Point [1]: 54 °C | Flash Point [1]: None | Vapor Pressure ([1]; @20 C.): 5.6 psi | Heat of Vaporization ([1]; @25° C.): 145@25 °C kJ/kg

Molecule: CCCBr [n-Propyl Bromide, n-propyl bromide, reference compound]
Boiling Point [1]: 71 °C | Flash Point [1]: None | Vapor Pressure ([1]; @20 C.): 2.1 psi | Heat of Vaporization ([1]; at bp): 246 kJ/kg | Soil Dissolution in solvent ([2]; Mineral Oil): Miscible | Soil Dissolution in solvent ([2]; Refrigerant oil): Miscible | Soil Dissolution in solvent ([2]; Silicone Lubricant): Miscible | Soil Dissolution in solvent ([2]; Solder Flux): Miscible

Molecule: FC(C(F)C(F)(F)C(F)(F)F)C(F)(F)F (stereo not drawn) [HFC 43-10mee]
Boiling Point [1]: 54 °C | Flash Point [1]: None | Vapor Pressure [1]: 4.4 psi | Heat of Vaporization ([1]; at bp): 129.7 kJ/kg

Molecule: O [water]
surface tension [1]: 72.1 dynes/cm

Molecule: FC(F)(F)/C=C/Cl [1233zd(E), trans-1-chloro-3,3,3-trifluoropropene]
Acetate [3, 4]: 0.04 ppm | Br^− [3, 4]: <0.05 ppm | Cl^− [3, 4]: 0.08 ppm | F^− [3, 4]: 0.05 ppm | Formate [3, 4]: 0.10 ppm | NO3^− [3, 4]: <0.05 ppm | PO4^−3 [3, 4]: <0.10 ppm | SO4^−2 [3, 4]: 0.18 ppm | Acetate [3, 5]: 0.07 ppm | Br^− [3, 5]: <0.05 ppm | Cl^− [3, 5]: 0.07 ppm | F^− [3, 5]: 0.05 ppm | Formate [3, 5]: 0.14 ppm | NO3^− [3, 5]: 0.10 ppm | PO4^−3 [3, 5]: <0.10 ppm | SO4^−2 [3, 5]: 0.26 ppm | Acetate [3, 6]: 0.09 ppm | Br^− [3, 6]: <0.05 ppm | Cl^− [3, 6]: 0.08 ppm | F^− [3, 6]: 0.06 ppm | Formate [3, 6]: 0.16 ppm | NO3^− [3, 6]: 0.15 ppm | PO4^−3 [3, 6]: <0.10 ppm | SO4^−2 [3, 6]: 0.31 ppm | Acetate [3, 7]: 0.04 ppm | Br^− [3, 7]: <0.05 ppm | Cl^− [3, 7]: 0.07 ppm | F^− [3, 7]: 0.05 ppm | Formate [3, 7]: 0.08 ppm | NO3^− [3, 7]: <0.05 ppm | PO4^−3 [3, 7]: <0.10 ppm | SO4^−2 [3, 7]: 0.19 ppm | Acetate [3, 8]: 0.04 ppm | Br^− [3, 8]: <0.05 ppm | Cl^− [3, 8]: 0.07 ppm | F^− [3, 8]: 0.06 ppm | Formate [3, 8]: 0.08 ppm | NO3^− [3, 8]: <0.05 ppm | PO4^−3 [3, 8]: <0.10 ppm | SO4^−2 [3, 8]: 0.18 ppm | Acetate [3, 9]: 0.08 ppm | Br^− [3, 9]: <0.05 ppm | Cl^− [3, 9]: 0.08 ppm | F^− [3, 9]: 0.05 ppm | Formate [3, 9]: 0.12 ppm | NO3^− [3, 9]: <0.05 ppm | PO4^−3 [3, 9]: <0.10 ppm | SO4^−2 [3, 9]: 0.23 ppm | Acetate [3, 10]: 0.12 ppm | Br^− [3, 10]: <0.05 ppm | Cl^− [3, 10]: 0.14 ppm | F^− [3, 10]: 0.09 ppm | Formate [3, 10]: 0.26 ppm | NO3^− [3, 10]: 0.19 ppm | PO4^−3 [3, 10]: <0.10 ppm | SO4^−2 [3, 10]: 0.45 ppm | Acetate [3, 11]: 0.08 ppm | Br^− [3, 11]: <0.05 ppm | Cl^− [3, 11]: 0.12 ppm | F^− [3, 11]: 0.08 ppm | Formate [3, 11]: 0.17 ppm | NO3^− [3, 11]: 0.06 ppm | PO4^−3 [3, 11]: <0.10 ppm | SO4^−2 [3, 11]: 0.17 ppm | Acetate [3, 12]: 0.12 ppm | Br^− [3, 12]: <0.05 ppm | Cl^− [3, 12]: 0.9 ppm | F^− [3, 12]: 0.09 ppm | Formate [3, 12]: 0.10 ppm | NO3^− [3, 12]: 0.12 ppm | PO4^−3 [3, 12]: <0.10 ppm | SO4^−2 [3, 12]: 0.41 ppm | Acetate [3, 13]: 0.12 ppm | Br^− [3, 13]: <0.05 ppm | Cl^− [3, 13]: 0.12 ppm | F^− [3, 13]: 0.08 ppm | Formate [3, 13]: 0.22 ppm | NO3^− [3, 13]: 0.14 ppm | PO4^−3 [3, 13]: <0.10 ppm | SO4^−2 [3, 13]: 0.30 ppm | Acetate [3, 14]: 0.10 ppm | Br^− [3, 14]: <0.05 ppm | Cl^− [3, 14]: 0.11 ppm | F^− [3, 14]: 0.08 ppm | Formate [3, 14]: 0.12 ppm | NO3^− [3, 14]: 0.06 ppm | PO4^−3 [3, 14]: <0.10 ppm | SO4^−2 [3, 14]: 0.18 ppm | Acetate [3, 15]: 0.13 ppm | Br^− [3, 15]: <0.05 ppm | Cl^− [3, 15]: 0.16 ppm | F^− [3, 15]: 0.09 ppm | Formate [3, 15]: 0.19 ppm | NO3^− [3, 15]: 0.12 ppm | PO4^−3 [3, 15]: <0.10 ppm | SO4^−2 [3, 15]: 0.29 ppm | Acetate [3, 16]: 0.13 ppm | Br^− [3, 16]: <0.05 ppm | Cl^− [3, 16]: 0.11 ppm | F^− [3, 16]: 0.08 ppm | Formate [3, 16]: 0.35 ppm | NO3^− [3, 16]: 0.06 ppm | PO4^−3 [3, 16]: <0.10 ppm | SO4^−2 [3, 16]: 0.21 ppm | breakdown products in solvent after reflux ([3]; reflux with individual metals and added moisture (0.20% H2O), 100 hours): no increase of chlorides and fluorides in the solvent over the baseline and no other degradation products | Boiling Point [1]: 19.52 °C | Flash Point [1]: None | Kauri-Butanol value [1]: 25 | flammability [1]: completely non-flammable | Vapor Pressure ([1]; @20 C.): 15.23 psi | Heat of Vaporization ([1]; at bp): 193.9 kJ/kg | Soil Dissolution in solvent ([2]; Mineral Oil): Miscible | Soil Dissolution in solvent ([2]; Refrigerant oil): Miscible | Soil Dissolution in solvent ([2]; Silicone Lubricant): Miscible | Soil Dissolution in solvent ([2]; Solder Flux): Miscible

Boiling Point [1]: 47.6 °C | Flash Point [1]: None | Kauri-Butanol value [1]: 32 | Vapor Pressure [1]: 5.27 psi | Heat of Vaporization ([1]; at bp): 144.7 kJ/kg
Molecule: FC(F)(Cl)C(F)(Cl)Cl [CFC-113, 1,1,2-trichlorotrifluoroethane]

Molecule: ClC(Cl)=C(Cl)Cl [Perc, perchloroethylene]
Boiling Point [1]: 121.3 °C | Flash Point [1]: None | Vapor Pressure ([1]; @20 C.): 0.27 psi | Heat of Vaporization ([1]; at bp): 207 kJ/kg
